Assay results published in patent US20120029054A1, “RNA Interference Mediated Inhibition of GATA Binding Protein 3 (GATA3) Gene Expression Using Short Intefering Nucleic Acid (siNA)” (Merck Sharp & Dohme Corp., priority 2009, published 2012).

Legend:
GATA3 mRNA = GATA3 mRNA knock-down (Taqman qRT-PCR) after RNAiMax transfection of mouse RAG cells; assay type: cell-based; settings: 10 nM siNA, 24 hrs, average of 2 experiments
Summary of the method: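 Murine RAG cells, 5000/well, transfected 24 h after plating with siNA (10 nM final) complexed with RNAiMax, harvested after 24 h. GATA3 mRNA quantified by TaqMan qRT-PCR with GAPDH reference; % knock-down by comparative Ct (2^−ΔΔCt) versus non-targeting control siNA.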

human GAPDH mRNA = assay: GAPDH specificity screen in human MCF7 cells (β-Actin normalised qRT-PCR); assay type: cell-based; settings: normalised to β-Actin, three experiments, mean ± S.D.
Experimental: A series of probes and primers were used to detect the various mRNA transcripts of the genes of β-Actin (human cell line only), and of GATA3 and GAPDH in mouse and human cell lines. All Taqman probes and primers for the experiments here-in described were supplied as pre-validated sets by Applied Biosystems, Inc. (see Table 2).
The assays were performed on an ABI 7900 instrument, according to the manufacturer's instructions. A TaqMan Gene Expression Master Mix (provided in the Cells-to-CT™, Applied Biosystems, Cat #4399002) was used. The PCR reactions were carried out at 50° C. for 2 min, 95° C. for 20 min followed by 40 cycles at 95° C. for 15 secs and 60° C. for 1 min.
The expression level of the gene of interest and % knock-down was calculated using Comparative Ct method: […]
These same three siNAs were tested for specificity in the human MCF7 cell line at 10 nM concentration to determine the effect of the GATA3 siNAs on the mRNA transcript of human GAPDH. In this assay, the samples from the primary screen, discussed above, O-Actin, a ubiquitously expressed ‘house-keeping’ gene, served as an endogenous control for normalization of the data.

## 30263-DC: GATA3 siNA duplex, site 817: sense B cGccucuGcuucAuGGAuc TTB (SEQ 79), antisense GAUccAuGAAGcAGAGGcGUU (SEQ 80) (sense CGCCUCUGCUUCAUGGAUCTT; antisense GAUCCAUGAAGCAGAGGCGUU; chemistry not fully specified)
GATA3 mRNA
  % KD Mouse: 9 ± 13%
Human GAPDH mRNA
  % KD GAPDH 10 nM: 11 ± 4%
